This series can be described thus: Pharmacokinetic study after single IV and PO dose. The class given is in vivo. The note with it: male ICR mice; for bioavailability: oral, 10 mg/kg; for half-life: noncompartmental analysis. As for the experimental part: All animal procedures were reviewed and approved by the Institutional Animal Care and Use Committee (IACUC) of Korea University (Approval No: KUIACUC-2020-0031) and conducted in compliance with the IACUC guidelines. […] In accordance with an approved protocol, mice were euthanized by CO2 asphyxiation at the end of the study. For intravenous (IV) administration, KB-1517 was dissolved in a vehicle of dimethylacetamide/Tween 80/water (5/5/90, v/v/v) at 1 mg/mL. KB-1518 (as TFA salt) was dissolved in DMSO/saline (10/90, v/v) at 1 mg/mL. Mice (n = 4 per group per compound) received a single IV dose of 5 mg/kg via the tail vein (dose volume: 5 mL/kg). For oral (PO) administration, the same formulations were used, and mice (n = 4 per group per compound) received a single dose of 10 mg/kg via oral gavage (dose volume: 10 mL/kg). For intraperitoneal (IP) administration, a suspension of KB-1517 or KB-1518 (0.4 mg/mL in PBS) was prepared by diluting a DMSO stock solution (13 mg/mL). Mice (n = 4 per compound) received a single IP injection of 0.2 mg per animal (dose volume: 500 µL). Serial blood samples (approximately 40 µL) were collected via the saphenous vein into Microvette® 100LH heparinized capillary tubes at selected time points. […] Plasma samples were stored in freezer until LC-MS/MS analysis. Protein precipitation was performed on 15 µL aliquots of plasma samples by adding three volumes of acetonitrile containing diclofenac as an analytical internal standard. The mixture was vortexed thoroughly and centrifuged at 3000× g for 30 min at 4 °C. A 50 µL aliquot of the resulting supernatant was transferred to a 96-well plate and mixed with 50 µL of water. The prepared solutions were analyzed using an Agilent 6460 QQQ LC-MS/MS system (Agilent Technologies Korea Ltd., Seoul, Republic of Korea). Quantitative analysis was performed using an Agilent 1290 Infinity Series HPLC system (Agilent Technologies Korea Ltd., Seoul, Republic of Korea) coupled to an Agilent 6460 QQQ mass spectrometer system (Agilent Technologies Korea Ltd., Seoul, Republic of Korea) with a dual AJS ESI ion source operating in positive ion mode. For chromatographic separation, an Agilent Eclipse Plus C18 column (2.1 × 100 mm, 3.5 µm) (Agilent Technologies Korea Ltd., Seoul, Republic of Korea) protected by a Phenomenex SecurityGuard C18 guard column was used. The mobile phase consisted of (A) 0.1% formic acid in water and (B) 0.1% formic acid in acetonitrile. […] The flow rate was 0.45 mL/min, the injection volume was 3 µL, and the column temperature was 40 °C. The ion source parameters for the mass spectrometer were set as follows: gas temperature 325 °C, gas flow 12 L/min, nebulizer pressure 35 psi, sheath gas temperature 350 °C, and sheath gas flow 10 L/min. Multiple Reaction Monitoring (MRM) transitions were used for quantification: KB-1517: m/z 402 → 72 (CE 10 V); KB-1518: m/z 402 → 72 (CE 5 V); Diclofenac (IS): m/z 296 → 215 (CE 30 V); […] Ranitidine: m/z 315 → 102 (CE 33 V); Itraconazole: m/z 705 → 395 (CE 40 V); […] Data acquisition and processing were performed using Agilent MassHunter Quantitative Analysis software (ver. B.05.00). Calibration curves were constructed using weighted linear regression. Noncompartmental analysis (NCA) was performed using PKSolver to determine pharmacokinetic parameters from the plasma concentration-time data. Parameters included: maximum plasma concentration (Cmax), time to reach Cmax (tmax), terminal elimination half-life (t1/2), area under the plasma concentration-time curve from time zero to the last measurable concentration (AUClast), area under the plasma concentration-time curve extrapolated to infinity (AUCinf), total body clearance (CL), and volume of distribution at steady state (Vss). […] Due to the anomalous profile of KB-1517, AUClast was used for its F calculation, and some parameters (t½, CL, Vss for IV; AUCinf for PO) could not be reliably determined (ND). […]

[1] abbreviates: mouse, plasma, single IV dose 5 mg/kg, mean ± SD (n = 4).
Setting [2] is: mouse, plasma, single PO dose 10 mg/kg, mean ± SD (n = 4).

Results on 2 compounds are retold here after paper PMC12473689, “Drug Metabolism and Pharmacokinetics of Oxazolo[4,5-c]quinoline Analogs as Novel Interleukin-33 Inhibitors” (Pharmaceutics, 2025).

Where two headings read alike, the source gives them in different places.

The bioavailability is dose-corrected exposure relative to a reference, in per cent. What is called AUC(0-inf) is the area under the concentration-time curve extrapolated to infinity. The low end stands for low exposure, the high end for high exposure. By AUC(0-t) is commonly meant exposure summed from dosing to a finite time, without extrapolation to infinity. In general, Cmax refers to the highest concentration seen after dosing. For orientation: Tmax means the time from dosing to the highest level. In general, half-life refers to how long it takes for the measured level to halve. A lower half-life goes with fast loss. With `CN(C)CCOc1nc2ccccc2c2oc(-c3ccc(C(F)(F)F)cc3)nc12` [KB-1518, N,N-dimethyl-2-((2-(4-(trifluoromethyl)phenyl)oxazolo[4,5-c]quinolin-4-yl)oxy)ethan-1-amine], the “F (oral bioavailability)” value (PO 10 mg/kg vs IV 5 mg/kg, calculated from AUCinf) is reported as 13.6 ± 3.4%. The CL (single IV dose 5 mg/kg, mean ± SD (n = 4), 5 mg/kg) came out at 25 ± 3.3 mL/min/kg. Moreover, the clearance (male, ICR, mouse, plasma, iv, 5 mg/kg, single IV dose 5 mg/kg, mean ± SD (n = 4)) is roughly 25 mL/min/kg. Further, under “male, ICR, mouse, plasma, iv, 5 mg/kg, single IV dose 5 mg/kg, mean ± SD (n = 4), read-out: Vss”, the Vd was roughly 4.6 L/kg. Moreover, the bioavailability (male, ICR, mouse, plasma, PO 10 mg/kg vs IV 5 mg/kg, calculated from AUCinf, read-out: F (oral bioavailability)) is roughly 14%. Under setting [1], the total exposure AUC(0-inf) is 3460 ± 476 ng·h/mL and the AUC(0-t) was 3460 ± 474 ng·h/mL. Moreover, under setting [2], the AUC(0-inf) was found to be 942 ± 234 ng·h/mL, the AUC(0-t) came to 868 ± 267 ng·h/mL, the concentration peaked (Cmax) at 157 ± 104 ng/mL and the Tmax worked out at 1.6 ± 0.8 h. The compound also gave a half-life (mouse, single IV dose 5 mg/kg, plasma, mean ± SD (n = 4)) of 2.6 ± 0.3 h. In addition, where the note is “mouse, single PO dose 10 mg/kg, plasma, mean ± SD (n = 4)”, the half-life is 6.2 ± 1.9 h.

On to `CN(C)CCn1c(=O)c2nc(-c3ccc(C(F)(F)F)cc3)oc2c2ccccc21` [KB-1517, 5-(2-(dimethylamino)ethyl)-2-(4-(trifluoromethyl)phenyl)oxazolo[4,5-c]quinolin-4(5H)-one], for which the “F (apparent oral bioavailability)” value (PO 10 mg/kg vs IV 5 mg/kg, calculated using AUClast) is on record as 119.3 ± 20.1%. Also, the bioavailability (male, ICR, mouse, plasma, PO 10 mg/kg vs IV 5 mg/kg, calculated using AUClast, read-out: F (apparent oral bioavailability)) was greater than 100%. Under setting [1], this compound had an AUC(0-t) of 1830 ± 348 ng·h/mL. Moreover, under setting [2], the AUC(0-t) is 4370 ± 738 ng·h/mL, the Cmax came to 289 ± 34.1 ng/mL and the time to peak (Tmax) was determined as 5.6 ± 3.5 h.
